Reference: US9132138B2, “Method for the treatment of multiple sclerosis” (CASI Pharmaceuticals, Inc., priority 2012, dated 2015)

Tests used:
purified CD4^+ T cells = assay: Proliferation of purified CD4+ T cells by 3H-thymidine incorporation; format: cell-based, C57/BL6 mice; conditions: 24 hours or 48 hours post-stimulation
Procedure: (§1) FIGS. 2A-2E, show proliferation and activation of T cells are inhibited by 2ME2. FIG. 2A, CD4^+ T cells were pre-treated with the indicated concentrations of 2ME2 and stimulated with plate-bound anti-CD3/28 or PMA/iono. Proliferation was assayed 24 hours (left) or 48 hours (right) later by 3H-thymidine incorporation. FIG. 2B, CD4^+ and CD8^+ T cells were stimulated with anti-CD3/28 in the presence of increasing concentrations of 2ME2. CD25 expression was assessed at 6 hours or 24 hours post-stimulation by flow cytometry. FIG. 2C, Quantification of CD25 expression in purified CD4^+ T cells pre-treated with increasing concentrations of 2ME2, and stimulated with anti CD3/28 or PMA/iono for 6 or 24 hours. […] Viability was determined 24 hours or 48 hours post-stimulation by flow cytometry. […] Proliferation was determined 24 hours or 48 hours later by 3H-thymidine incorporation. […]
(§2) Purified CD4^+ T cells were stimulated with plate-bound anti-CD3 (clone 2C11, BD, 10 ng/ml) plus anti-CD28 (clone 37.51, BD, 100 ng/ml). […] CD25 and CD69 expression was determined by flow cytometry (FACSCanto II, BD) and analyzed using FloJo software (Treestar Inc). Proliferation was assessed by 3H-thymidine incorporation. Viability and upregulation of cell surface markers on activated T cells were assessed by flow cytometry using Annexin V and propridium iodide. […]

Th17 cells = assay: Intracellular cytokine staining of in vitro differentiated Th17 cells; format: cell-based, C57/BL6 mice
T cells [1] = assay: T cell viability by flow cytometry (Annexin V and propidium iodide); format: cell-based, C57/BL6 mice
Procedure: FIGS. 2A-2E, show proliferation and activation of T cells are inhibited by 2ME2. FIG. 2A, CD4^+ T cells were pre-treated with the indicated concentrations of 2ME2 and stimulated with plate-bound anti-CD3/28 or PMA/iono. Proliferation was assayed 24 hours (left) or 48 hours (right) later by 3H-thymidine incorporation. FIG. 2B, CD4^+ and CD8^+ T cells were stimulated with anti-CD3/28 in the presence of increasing concentrations of 2ME2. CD25 expression was assessed at 6 hours or 24 hours post-stimulation by flow cytometry. FIG. 2C, Quantification of CD25 expression in purified CD4^+ T cells pre-treated with increasing concentrations of 2ME2, and stimulated with anti CD3/28 or PMA/iono for 6 or 24 hours. FIG. 2D, T cells were pretreated with the indicated doses of 2ME2 and left untreated (left) or stimulated using plate-bound anti-CD3/28 (right). Viability was determined 24 hours or 48 hours post-stimulation by flow cytometry. FIG. 2E, human PBMC were activated with anti-human CD3/28 in the presence of increasing concentrations of 2ME2. Proliferation was determined 24 hours or 48 hours later by 3H-thymidine incorporation. Data are mean±SD of triplicate determinations and are representative of three separate donors. For FIG. 2A and FIG. 2E, data shown are the mean±SD of triplicate determinations, and are representative of 3 experiments. For FIG. 2B and FIG. 2C data is representative of two experiments.
(§3) Cells were pre-incubated with various concentrations of 2ME2 (Entremed) or vehicle (DMSO) for 30 minutes at 37° C.
as §2

activated T cells = assay: Quantitative real time PCR of mRNAs in activated T cells; format: cell-based, C57/BL6 mice
activated B cells = assay: B cell activation markers CD25 and CD69; format: cell-based, C57/BL6 mice
Procedure: as §3
(§4) Purified CD4^+ T cells were stimulated with plate-bound anti-CD3 (clone 2C11, BD, 10 ng/ml) plus anti-CD28 (clone 37.51, BD, 100 ng/ml). Purified B220+ B cells were stimulated with anti-IgM (Jackson, 5 μg/ml), anti-CD40 (clone 3/20, BD, 5 μg/ml) or LPS (Sigma, 20 μg/ml) for the times indicated in FIG. 3. CD25 and CD69 expression was determined by flow cytometry (FACSCanto II, BD) and analyzed using FloJo software (Treestar Inc). Proliferation was assessed by 3H-thymidine incorporation. Viability and upregulation of cell surface markers on activated T cells were assessed by flow cytometry using Annexin V and propridium iodide. Human Peripheral blood mononuclear cells (PBMC) were isolated using Mono-Poly Resolving Medium (MP Biomedical) according to the manufacturer's protocols and activated with anti-CD3 (clone UCHT1) and anti-CD28 (clone CD28.2).

ERα = target: T1, ERα (Homo sapiens, UniProt P03372); conditions: cited from earlier work
T1 sequence (P03372 1-595): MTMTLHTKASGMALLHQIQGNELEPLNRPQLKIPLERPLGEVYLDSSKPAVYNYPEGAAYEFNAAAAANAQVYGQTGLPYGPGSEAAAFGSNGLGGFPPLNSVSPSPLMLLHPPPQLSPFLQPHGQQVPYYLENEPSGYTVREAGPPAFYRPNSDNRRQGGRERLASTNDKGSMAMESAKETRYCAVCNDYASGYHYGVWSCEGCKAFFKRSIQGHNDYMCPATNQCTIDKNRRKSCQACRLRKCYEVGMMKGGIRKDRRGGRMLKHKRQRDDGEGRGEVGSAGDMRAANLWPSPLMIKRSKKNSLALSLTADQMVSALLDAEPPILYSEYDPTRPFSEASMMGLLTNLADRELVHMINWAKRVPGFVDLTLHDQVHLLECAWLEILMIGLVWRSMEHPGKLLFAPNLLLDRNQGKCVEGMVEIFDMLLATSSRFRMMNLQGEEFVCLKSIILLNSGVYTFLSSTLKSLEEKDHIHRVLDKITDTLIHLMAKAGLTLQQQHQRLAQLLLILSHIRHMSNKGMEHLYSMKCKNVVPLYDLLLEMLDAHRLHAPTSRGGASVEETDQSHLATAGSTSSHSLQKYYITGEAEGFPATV

human PBL = assay: CD25 expression and cytokine production by CD3/28-stimulated human PBL; format: cell-based
Procedure: as §4

T cells [2] = assay: T cell activation markers CD25 and CD69 by flow cytometry; format: cell-based, C57/BL6 mice; conditions: anti-CD3/28 or PMA/iono
Procedure: as §1, §2

Question: Which results are given for `COc1cc2c(cc1O)CC[C@@H]1[C@@H]2CC[C@]2(C)[C@@H](O)CC[C@@H]12` [2ME2, 2-Methoxyestradiol]?
Answer: anti-CD3/28 or PMA+iono-dependent proliferation (purified CD4^+ T cells): dose-dependent inhibition; Th17 cells positive for IL-17 (Th17 cells; 50 μM 2ME2, PMA/iono 6 hours, vehicle 23.2%): 7.3%; production of IFNγ in Th17 cells (positive cells) (Th17 cells; PMA/iono 6 hours, vehicle 9.1%): 7.3%; apoptosis in activated T cells (T cells [1]; 24 hours): none was apparent; apoptosis in un-stimulated T cells (T cells [1]; 24 hours): only a modest 2ME2-dependent increase in apoptosis; viability of activated T cells (T cells [1]; 48 hours post-stimulation): reduced viability; induction of CD25 mRNA (activated T cells; 2ME2 50 μM, anti-CD3/28): decreased the induction; induction of CD44 mRNA (activated T cells; 2ME2 50 μM, anti-CD3/28): decreased the induction; induction of IFNγ mRNA (activated T cells; 2ME2 50 μM, anti-CD3/28): decreased the induction; induction of IL-2 mRNA (activated T cells; 2ME2 50 μM, anti-CD3/28): decreased the induction; induction of TNFα mRNA (activated T cells; 2ME2 50 μM, anti-CD3/28): decreased the induction; mRNA levels of GATA3 (activated T cells; 3 hours post stimulation): normal induction; up-regulation of IL-17 mRNA (activated T cells; after 3 hours and 24 hours anti-CD3/28 stimulation): blocking up-regulation; upregulation of IL-4 mRNA (activated T cells; in response to TCR ligation): inhibited; IL-17 production on re-stimulation (activated T cells; re-stimulation after 5 days activation): blocked; up-regulation of CD25 in activated B cells (activated B cells): prevented; up-regulation of CD69 in activated B cells (activated B cells): prevented; lower affinity than estradiol for ERα (ERα): 500 fold; IFNγ production (human PBL; CD3/28-stimulated human PBL): inhibited; IL-2 production (human PBL; CD3/28-stimulated human PBL): inhibited; IL-17A production (human PBL; CD3/28-stimulated human PBL): inhibited; anti-CD3/28-induced expression of CD25 on CD4+ and CD8+ T cells (human PBL; human PBL): inhibited; up-regulation of CD25 (T cells [2]): blocked up-regulation; up-regulation of CD69 (T cells [2]): blocked up-regulation
